Results as given in article PMC7522982, “PKIS deep dive yields a chemical starting point for dark kinases and a cell active BRSK2 inhibitor” (Scientific Reports, 2020).

Experiments:
[1] = tested on: 17 different cancer and normal cell lines; assay: cell growth, deep dye drop method; assay type: cell-based; settings: 1 μM for 72 h; 17 cancer and normal cell lines; deep dye drop method (N = 2)
Experimental: (A) Structure of GW296115. […] Cell lines in the panel were treated with 1 μM GW296115 for 72 h (N = 2) and analyzed using the deep dye drop method. MCF10A and MRC-5 are non-malignant cell lines. […] Coral was used to make (C): https://phanstiel-lab.med.unc.edu/CORAL.
This compound was further profiled in 17 different cancer and normal cell lines to determine whether it impacted cell growth when treated at 1 μM for 72 h. […] Here we further explore the target engagement characteristics of GW296115 in vitro and in cells and capture its specificity for the CAMK family of kinases.

PIM2 = PIM2 (Homo sapiens, UniProt Q9P1W9); set-up: purchased Eurofins DiscoverX Corporation; method as in earlier work; settings: cited from earlier work
PIM2, sequence (Q9P1W9 whole entry): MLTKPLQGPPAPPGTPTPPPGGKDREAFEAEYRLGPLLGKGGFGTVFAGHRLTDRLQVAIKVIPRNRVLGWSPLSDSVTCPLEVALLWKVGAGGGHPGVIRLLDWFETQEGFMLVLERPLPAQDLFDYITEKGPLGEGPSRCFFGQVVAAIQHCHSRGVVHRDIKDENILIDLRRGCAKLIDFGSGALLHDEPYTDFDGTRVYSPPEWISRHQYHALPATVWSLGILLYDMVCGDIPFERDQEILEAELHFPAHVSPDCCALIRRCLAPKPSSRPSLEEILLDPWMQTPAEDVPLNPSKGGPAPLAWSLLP

BRSK2 = target: T1, BRSK2 (Homo sapiens, UniProt Q8IWQ3); set-up: purchased Eurofins DiscoverX Corporation; method as in earlier work; settings: cited from earlier work
T1 sequence (Q8IWQ3 1-736): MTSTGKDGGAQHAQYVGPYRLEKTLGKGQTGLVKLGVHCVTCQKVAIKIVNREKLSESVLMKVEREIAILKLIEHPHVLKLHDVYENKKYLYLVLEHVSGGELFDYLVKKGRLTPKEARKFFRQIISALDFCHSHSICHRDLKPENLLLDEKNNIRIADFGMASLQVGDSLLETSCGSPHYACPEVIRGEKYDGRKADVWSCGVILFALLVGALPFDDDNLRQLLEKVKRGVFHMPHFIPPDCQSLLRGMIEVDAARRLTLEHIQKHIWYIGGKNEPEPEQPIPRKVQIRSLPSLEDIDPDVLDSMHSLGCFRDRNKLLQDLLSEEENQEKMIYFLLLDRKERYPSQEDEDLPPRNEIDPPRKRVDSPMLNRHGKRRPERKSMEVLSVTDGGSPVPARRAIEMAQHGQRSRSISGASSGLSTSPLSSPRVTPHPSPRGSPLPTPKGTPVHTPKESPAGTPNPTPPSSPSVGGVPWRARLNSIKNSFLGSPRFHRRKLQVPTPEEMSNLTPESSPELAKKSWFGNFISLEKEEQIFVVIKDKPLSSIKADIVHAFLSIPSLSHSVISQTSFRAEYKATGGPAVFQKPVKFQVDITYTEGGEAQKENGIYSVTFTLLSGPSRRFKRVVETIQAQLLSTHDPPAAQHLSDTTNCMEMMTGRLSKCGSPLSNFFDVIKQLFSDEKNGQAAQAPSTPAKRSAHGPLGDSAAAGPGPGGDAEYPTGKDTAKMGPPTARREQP

[2] = tested on: cytoplasmic domain of PDGFR; set-up: method as in PMID 10048786; settings: in vitro; read-out: IC50, autophosphorylation of the cytoplasmic domain of PDGFR in vitro; cited from earlier work

COc1ccc2[nH]c3c4[nH]c5ccc(OC)cc5c4c4c(c3c2c1)C(=O)NC4=O [GW296115]
effect on cell growth [1]: did not impact cell growth
Nanosyn % Inhibition at 1 μM (PIM2): 68%
Nanosyn % Inhibition at 1 μM (BRSK2): 95%
IC50 [2]: 1.8 ± 0.12 µM
